Experimental data as given in PubChem BioAssay (NCI).
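Grown in 96-well plates, cells were treated for 48 hours with each compound at five concentrations. Insufficient inhibition: endpoint recorded as highest concentration tested. The concentration for 50% growth inhibition is given as GI50. TGI: concentration producing complete growth inhibition.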

Key:
Experiment in all cases: NCI tumour cell line growth inhibition, 48 h
786-0 renal = test system: 786-0 renal
A498 renal = test system: A498 renal
A549 NSCLC = test system: A549 NSCLC
ACHN renal = test system: ACHN renal
BT-549 breast = test system: BT-549 breast
CAKI-1 renal = test system: CAKI-1 renal
CCRF-CEM leukemia = test system: CCRF-CEM leukemia
COLO 205 colon = test system: COLO 205 colon
DU-145 prostate = test system: DU-145 prostate
EKVX NSCLC = test system: EKVX NSCLC
HCC-2998 colon = test system: HCC-2998 colon
HCT-116 colon = test system: HCT-116 colon
HCT-15 colon = test system: HCT-15 colon
HL-60(TB) leukemia = test system: HL-60(TB) leukemia
HOP-62 NSCLC = test system: HOP-62 NSCLC
HOP-92 NSCLC = test system: HOP-92 NSCLC
HS 578T breast = test system: HS 578T breast
HT29 colon = test system: HT29 colon
IGROV1 ovarian = test system: IGROV1 ovarian
K-562 leukemia = test system: K-562 leukemia
KM12 colon = test system: KM12 colon
M14 melanoma = test system: M14 melanoma
MALME-3M melanoma = test system: MALME-3M melanoma
MDA-MB-231 breast = test system: MDA-MB-231 breast
MDA-MB-435 = test system: MDA-MB-435
MOLT-4 leukemia = test system: MOLT-4 leukemia
NCI-H226 lung = test system: NCI-H226 lung
NCI-H23 lung = test system: NCI-H23 lung
NCI-H460 lung = test system: NCI-H460 lung
NCI-H522 lung = test system: NCI-H522 lung
NCI/ADR-RES ovarian = test system: NCI/ADR-RES ovarian
OVCAR-3 ovarian = test system: OVCAR-3 ovarian
OVCAR-4 ovarian = test system: OVCAR-4 ovarian
OVCAR-5 ovarian = test system: OVCAR-5 ovarian
OVCAR-8 ovarian = test system: OVCAR-8 ovarian
PC-3 prostate = test system: PC-3 prostate
RPMI-8226 leukemia = test system: RPMI-8226 leukemia
RXF 393 renal = test system: RXF 393 renal
SF-268 CNS = test system: SF-268 CNS
SF-295 CNS = test system: SF-295 CNS
SF-539 CNS = test system: SF-539 CNS
SK-MEL-2 melanoma = test system: SK-MEL-2 melanoma
SK-MEL-28 melanoma = test system: SK-MEL-28 melanoma
SK-MEL-5 melanoma = test system: SK-MEL-5 melanoma
SK-OV-3 ovarian = test system: SK-OV-3 ovarian
SN12C renal = test system: SN12C renal
SNB-19 CNS = test system: SNB-19 CNS
SNB-75 CNS = test system: SNB-75 CNS
SR leukemia = test system: SR leukemia
SW-620 colon = test system: SW-620 colon
T-47D breast = test system: T-47D breast
TK-10 renal = test system: TK-10 renal
U251 CNS = test system: U251 CNS
UACC-257 melanoma = test system: UACC-257 melanoma
UACC-62 melanoma = test system: UACC-62 melanoma
UO-31 renal = test system: UO-31 renal

**Q.** What does the source list for `CCOC(=O)c1ccc(NC2=C(Cl)C(=O)c3nc(C)ccc3C2=O)cc1`?
**A.** GI50 (786-0 renal): 1.88 µM; TGI (786-0 renal): 3.93 µM; GI50 (A498 renal): 11.7 µM; TGI (A498 renal): 28.3 µM; GI50 (A549 NSCLC): 19.4 µM; TGI (A549 NSCLC): 70.5 µM; GI50 (ACHN renal): 1.81 µM; TGI (ACHN renal): 3.35 µM; GI50 (BT-549 breast): 2.06 µM; TGI (BT-549 breast): 5.1 µM; GI50 (CAKI-1 renal): 1.53 µM; TGI (CAKI-1 renal): 2.99 µM; GI50 (CCRF-CEM leukemia): 1.27 µM; TGI (CCRF-CEM leukemia): 4.88 µM; GI50 (COLO 205 colon): 1.75 µM; TGI (COLO 205 colon): 3.58 µM; GI50 (DU-145 prostate): 1.82 µM; TGI (DU-145 prostate): 3.4 µM; GI50 (EKVX NSCLC): 2.53 µM; TGI (EKVX NSCLC): 7.55 µM; GI50 (HCC-2998 colon): 3.63 µM; TGI (HCC-2998 colon): 13.8 µM; GI50 (HCT-116 colon): 1.87 µM; TGI (HCT-116 colon): 4.36 µM; GI50 (HCT-15 colon): 1.57 µM; TGI (HCT-15 colon): 3.37 µM; GI50 (HL-60(TB) leukemia): 1.1 µM; TGI (HL-60(TB) leukemia): 3.21 µM; GI50 (HOP-62 NSCLC): 10.2 µM; TGI (HOP-62 NSCLC): 23.9 µM; GI50 (HOP-92 NSCLC): 1.8 µM; TGI (HOP-92 NSCLC): 3.48 µM; GI50 (HS 578T breast): 2.55 µM; TGI (HS 578T breast): 7 µM; GI50 (HT29 colon): 2.18 µM; TGI (HT29 colon): 5.13 µM; GI50 (IGROV1 ovarian): 3.43 µM; TGI (IGROV1 ovarian): 11.3 µM; GI50 (K-562 leukemia): 0.371 µM; TGI (K-562 leukemia): 3.3 µM; GI50 (KM12 colon): 3.37 µM; TGI (KM12 colon): 12.9 µM; GI50 (M14 melanoma): 1.85 µM; TGI (M14 melanoma): 3.76 µM; GI50 (MALME-3M melanoma): 1.83 µM; TGI (MALME-3M melanoma): 3.62 µM; GI50 (MDA-MB-231 breast): 3.73 µM; TGI (MDA-MB-231 breast): 17.1 µM; GI50 (MDA-MB-435): 3.21 µM; TGI (MDA-MB-435): 10.8 µM; GI50 (MOLT-4 leukemia): 1.57 µM; TGI (MOLT-4 leukemia): 5.32 µM; GI50 (NCI-H226 lung): 3.43 µM; TGI (NCI-H226 lung): 17.5 µM; GI50 (NCI-H23 lung): 2.31 µM; TGI (NCI-H23 lung): 7.58 µM; GI50 (NCI-H460 lung): 8.76 µM; TGI (NCI-H460 lung): 30.1 µM; GI50 (NCI-H522 lung): 1.71 µM; TGI (NCI-H522 lung): 3.72 µM; GI50 (NCI/ADR-RES ovarian): 2.57 µM; TGI (NCI/ADR-RES ovarian): 9.61 µM; GI50 (OVCAR-3 ovarian): 1.78 µM; TGI (OVCAR-3 ovarian): 3.22 µM; GI50 (OVCAR-4 ovarian): 1.67 µM; TGI (OVCAR-4 ovarian): 3.26 µM; GI50 (OVCAR-5 ovarian): 13.2 µM; TGI (OVCAR-5 ovarian): 33.7 µM; GI50 (OVCAR-8 ovarian): 4.38 µM; TGI (OVCAR-8 ovarian): 18.4 µM; GI50 (PC-3 prostate): 3.31 µM; TGI (PC-3 prostate): 15.7 µM; GI50 (RPMI-8226 leukemia): 2.16 µM; TGI (RPMI-8226 leukemia): 5.95 µM; GI50 (RXF 393 renal): 1.63 µM; TGI (RXF 393 renal): 3.02 µM; GI50 (SF-268 CNS): 3.86 µM; TGI (SF-268 CNS): 17.1 µM; GI50 (SF-295 CNS): 5.48 µM; TGI (SF-295 CNS): 19.1 µM; GI50 (SF-539 CNS): 2.52 µM; TGI (SF-539 CNS): 6.72 µM; GI50 (SK-MEL-2 melanoma): 2.89 µM; TGI (SK-MEL-2 melanoma): 9.46 µM; GI50 (SK-MEL-28 melanoma): 2.47 µM; TGI (SK-MEL-28 melanoma): 6.02 µM; GI50 (SK-MEL-5 melanoma): 2.21 µM; TGI (SK-MEL-5 melanoma): 5.63 µM; GI50 (SK-OV-3 ovarian): 10.5 µM; TGI (SK-OV-3 ovarian): 23.9 µM; GI50 (SN12C renal): 3.51 µM; TGI (SN12C renal): 20.2 µM; GI50 (SNB-19 CNS): 4.76 µM; TGI (SNB-19 CNS): 89.4 µM; GI50 (SNB-75 CNS): 2.3 µM; TGI (SNB-75 CNS): 10.3 µM; GI50 (SR leukemia): 0.783 µM; TGI (SR leukemia): 3.57 µM; GI50 (SW-620 colon): 2.06 µM; TGI (SW-620 colon): 4.41 µM; GI50 (T-47D breast): 2.1 µM; TGI (T-47D breast): 5.09 µM; GI50 (TK-10 renal): 1.79 µM; TGI (TK-10 renal): 3.24 µM; GI50 (U251 CNS): 3.75 µM; TGI (U251 CNS): 16.1 µM; GI50 (UACC-257 melanoma): 1.63 µM; TGI (UACC-257 melanoma): 3.12 µM; GI50 (UACC-62 melanoma): 2.46 µM; TGI (UACC-62 melanoma): 11.2 µM; GI50 (UO-31 renal): 1.54 µM; TGI (UO-31 renal): 3.01 µM
